# Data taken from ChEMBL document CHEMBL1134982, “Natural PTP1B inhibitors from Broussonetia papyrifera” (Bioorg Med Chem Lett, 2002).
# pIC50: −log10 of the molar value.
# Biological target: T1, Tyrosine-protein phosphatase non-receptor type 1 (Homo sapiens, UniProt P18031)
# T1 sequence (P18031 whole entry): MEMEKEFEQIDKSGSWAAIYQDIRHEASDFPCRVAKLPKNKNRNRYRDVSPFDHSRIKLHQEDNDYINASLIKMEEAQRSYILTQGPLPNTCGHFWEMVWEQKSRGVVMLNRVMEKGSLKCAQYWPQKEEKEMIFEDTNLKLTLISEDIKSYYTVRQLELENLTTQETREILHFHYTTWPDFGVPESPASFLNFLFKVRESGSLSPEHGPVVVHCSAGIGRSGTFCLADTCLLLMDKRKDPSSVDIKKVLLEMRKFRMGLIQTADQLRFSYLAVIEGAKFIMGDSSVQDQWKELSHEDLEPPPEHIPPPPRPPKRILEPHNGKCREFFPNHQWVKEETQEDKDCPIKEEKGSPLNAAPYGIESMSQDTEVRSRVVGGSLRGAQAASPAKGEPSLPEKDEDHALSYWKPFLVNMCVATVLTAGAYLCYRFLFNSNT
# Assay: The inhibitory activity tested against human Protein-tyrosine phosphatase 1B enzyme
row,pIC50,SMILES
1,4.67,CC(C)=CCc1cc(-c2oc3cc(O)cc(O)c3c(=O)c2O)cc(O)c1O
2,5.37,C=CC(C)(C)c1c(O)cc(O)c2c(=O)c(O)c(-c3cc(O)c(O)c(CC=C(C)C)c3)oc12
3,4.38,CC(C)=CCc1cc(C2CCc3ccc(O)cc3O2)cc(O)c1O (centres undefined)
4,4.43,CC(C)=CCc1cc(C(=O)/C=C/c2ccc(O)c(O)c2)c(O)cc1O [BROUSSOCHALCONE A]
